# From patent US9284283B2, “Macrocyclic compounds for modulating IL-17” (ENSEMBLE THERAPEUTICS CORPORATION, priority 2012, dated 2016)
# pIC50, pKd: −log10 of the molar value.
# Target: T1, recombinant human IL17a (binding to its receptor IL17R) (Homo sapiens, UniProt Q16552)
# T1 construct: purchased R&D Systems 317-ILB (IL17a); 177-IR (IL17R/Fc)
# T1 sequence (Q16552 20-155 limits assumed): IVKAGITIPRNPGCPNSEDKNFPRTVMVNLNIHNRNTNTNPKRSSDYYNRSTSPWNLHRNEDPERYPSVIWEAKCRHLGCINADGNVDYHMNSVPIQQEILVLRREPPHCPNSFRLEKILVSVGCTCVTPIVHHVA
# Test: IL-17 competition ELISA I (IL17a coated, IL17R/Fc binding)
# Settings: not given
# Summary of the method: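 Plates coated with 20 nM recombinant human IL17a received compound dilutions and 12 nM IL17R/Fc (final) for 30 min at room temperature. Bound receptor was detected with HRP anti-human Fc and TMB, read at 450 nm. IC50 came from a 4-parameter logistic fit between no-competitor and blank controls.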
row,SMILES,pIC50
1,O=C1CNC(=O)[C@@H](Cc2ccc(NC(=O)[C@H](Cc3ccccc3Cl)NC(=O)c3ccc(F)cc3)cc2)NC(=O)CC2(CCCC2)CC(=O)NCCCCCN1 [Compound 227],6.00 to 7.00
2,O=C1CNC(=O)[C@@H](Cc2ccc(NC(=O)[C@H](Cc3ccc(O)cc3)NC(=O)Cc3ccccc3)cc2)NC(=O)CC2(CCCC2)CC(=O)NCCCCCN1 [Compound 183],5.00 to 6.00
3,CC1(C)CC(=O)NCCCCCNC(=O)CNC(=O)[C@@H](Cc2ccc(NC(=O)[C@H](Cc3ccccc3Cl)NC(=O)Cc3ccccc3)cc2)NC(=O)C1 [Compound 222],> 7.00
4,CN1CC(=O)NCCCCCNC(=O)CC2(CCCC2)CC(=O)N[C@H](Cc2ccc(NC(=O)[C@H](Cc3ccccc3Cl)NC(=O)Cc3ccc(O)cc3)cc2)C1=O [Compound 193],6.00 to 7.00
5,O=C1CCCNC(=O)[C@@H](Cc2ccc(NC(=O)[C@H](Cc3ccccc3Cl)NC(=O)Cc3ccccc3)cc2)NC(=O)CC2(CCCC2)CC(=O)NCCCN1 [Compound 158],> 7.00
6,O=C1CNC(=O)[C@@H](Cc2ccc(NC(=O)[C@H](Cc3ccccc3Cl)NC(=O)Cc3ccncc3)cc2)NC(=O)CC2(CCCC2)CC(=O)NCCCCCN1 [Compound 202],> 7.00
7,O=C1CNC(=O)[C@@H](Cc2ccc(NC(=O)[C@H](Cc3ccccc3Cl)NC(=O)c3ccccc3Cl)cc2)NC(=O)CC2(CCCC2)CC(=O)NCCCCCN1 [Compound 204],6.00 to 7.00
8,O=C1CNC(=O)[C@@H](Cc2ccc(NC(=O)[C@H](Cc3ccccc3Cl)NC(=O)Cc3ccccc3)cc2)NC(=O)CC2(CCCCC2)CC(=O)NCCCCCN1 [Compound 223],> 7.00
9,O=C1CNC(=O)[C@@H](Cc2ccc(NC(=O)[C@H](Cc3ccc(Cl)c(Cl)c3)NC(=O)Cc3ccccc3)cc2)NC(=O)CC2(CCCC2)CC(=O)OCCCCCN1 [Compound 224],5.00 to 6.00
10,O=C1CNC(=O)[C@@H](Cc2ccc(NC(=O)[C@H](Cc3csc4ccccc34)NC(=O)Cc3ccccc3)cc2)NC(=O)CC2(CCCC2)CC(=O)NCCCCCN1 [Compound 233],6.00 to 7.00

# Test system: DNFB-treated BALB/c mice
# Test: Murine model of delayed hypersensitivity (DNFB-induced ear edema)
# Type: in vivo, mouse
# Settings: po, 30 mg/kg; ear weight 24 h after DNFB challenge
# Description: We used a murine model of fluorodinitrobenzene (DNFB)-induced ear edema to test the anti-inflammatory activity of both orally dosed and intraperitoneally dosed exemplary compounds of the invention. BALB/c mice (Harlan Sprague-Dawley, Inc., male, 6-8 weeks old) were topically treated on their shaved abdomen with 30 μL of 0.5% 1-fluoro-2,4-dinitrobenzene (DNFB) (4:1 acetone:olive oil) once on Day 0 and once on Day 1.
# For oral dosing (“PO”), exemplary compounds of the invention were either suspended at 3 mg/mL in 20% Cremophor EL (Sigma) (20:80; Cremophor:water) or dissolved at 1 mg/mL or 3 mg/mL in D-α-tocopherol polyethylene glycol 1000 succinate (TPGS; Sigma)/PEG-400/water (20:60:20). For intraperitoneal dosing (“IP”), exemplary compounds of the invention were dissolved in DMSO at a concentration of 5 mg/mL. On day 7, the test compound was administered (PO at either 10 mg/kg or 30 mg/kg; IP at 1, 3, or 10 mg/kg) to DNFB-treated mice. Commercially available anti-mouse IL-17A (BioLegend) administered intraperitoneally at 5 mg/kg in PBS was used as a positive control. Thirty minutes later, 20 μL of 0.2% DNFB was applied to the right ear of animals and vehicle ([…]:olive oil) was applied to the left ear. One and four hours after DNFB challenge, a subset of mice was exsanguinated and plasma prepared from the blood. Twenty-four hours after challenge, the remaining mice were euthanized, and their ears were removed and weighed to determine the amount of edema. Plasma was assayed for interleukin-6, TNF-α, CXCL1, and interferon-γ concentrations using commercially-available assays.
row,SMILES,Reduction in edema (%)
1,COC(=O)N[C@@H](Cc1ccccc1Cl)C(=O)Nc1ccc(C[C@H]2NC(=O)CC3(CCCC3)CC(=O)NCCOCCOCCNC2=O)cc1 [Compound 465],23.5%

# Same assay, conditions: po, 30 mg/kg; plasma
SMILES,IFNγ Reduction (%),IL6 Reduction (%)
COC(=O)N[C@@H](Cc1ccccc1Cl)C(=O)Nc1ccc(C[C@H]2NC(=O)CC3(CCCC3)CC(=O)NCCOCCOCCNC2=O)cc1 [Compound 465],47.4%,42.5%

# Target: T2, IL17A (Homo sapiens, UniProt Q16552)
# T2 sequence (Q16552 24-155): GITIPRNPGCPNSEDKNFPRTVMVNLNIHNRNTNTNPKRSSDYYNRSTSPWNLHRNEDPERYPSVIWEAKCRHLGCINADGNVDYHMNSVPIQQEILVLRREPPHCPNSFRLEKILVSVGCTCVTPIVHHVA
# Test: Surface Plasmon Resonance (SPR) analysis of compound interactions with IL17A
# Settings: SPR binding to IL17A
# Description: SPR analysis was carried out with a GE Healthcare (Piscataway, N.J.) Biacore X100 system. Typically, the chip (NTA Biacore Biosensor chip; GE Healthcare BR-1000-34) was first conditioned by injection of 0.35 M EDTA, which also served to remove any immobilized proteins from previous runs. Before immobilization of the recombinant 6-His-tagged IL17, the chip was washed with 0.5 mM nickel chloride in NTA buffer (10 mM HEPES buffer, 0.15 M sodium chloride, 10 μM ethylene diamine tetraacetic acid, 0.005% v/v surfactant P20 (GE Healthcare BR-1000-54)) to form a nickel chelate on the chip. IL17 protein was immobilized onto a NTA chip through its 6-His tag. IL17A was typically injected at 0.25 μM for 60-120 seconds, followed by a stabilization step washing with NTA+0.5% DMSO for 120 seconds or longer.
# Five 2-fold or 3-fold serial dilutions of test compound were injected serially onto the chip. All steps were conducted using NTA buffer containing 0.5% v/v dimethylsulfoxide (DMSO). Compounds were diluted from stock solutions of 10 mM concentration in 100% DMSO with NTA buffer to obtain 50 μM solutions in NTA+0.5% DMSO. Subsequent 2× or 3× dilutions were made in NTA+0.5% DMSO. Compound was generally injected for 180 seconds followed by washing the chip in buffer alone for 120 seconds. The rate of refractive index change (RU units/time) and the maximum extend of RU change was measured during the “on” phase of analyte injection, followed by measuring the rate during the “off” phase.
# Kinetic parameter fits were conducted using the Biacore SPR Evaluation Program (GE Healthcare) for 1:1 molecular binding fits, after subtracting the baseline average of 2 or more runs in which no analyte was injected. This program then reports the best fit average for the “on” rate (Ka), the “off” rate (Kd) and the dissociation constant (KD) (Chaiken, I et al., Anal Biochem 201, 197-210 (1992)). A separate program in the Biacore SPR Evaluation Program then calculates the best fit for Kd based upon the extent of binding alone (RU units bound) at each concentration of analyte and reports the best fit Kd by best fit to a Lineweaver-Burke plot. Typically, the Kd value calculated through both means agreed within a factor of three.
# The presence and activity of IL17 on the NTA chip was routinely confirmed three ways: • 1) An increase in response units (RU) upon immobilization confirms that the IL17 was immobilized on the chip; • 2) Anti-IL17 was also injected on the chip to confirm the presence of IL17; and • 3) IL17R was injected onto the chip to confirm that the immobilized IL17 retained its binding activity for its receptor. Negative controls to access specificity for compound binding were conducted by immobilizing unrelated, but his-tagged, proteins (such as cyclophilin D) and conducting the same analysis as done with IL17A.
row,SMILES,pKd
1,O=C1CNC(=O)[C@@H](Cc2ccc(NC(=O)[C@H](Cc3ccccc3Cl)NC(=O)Cc3ccccc3)cc2)NC(=O)CC2(CCCC2)CC(=O)N(CCO)CCCCCN1 [Compound 168],> 7.00
2,O=C1CNC(=O)[C@@H](Cc2ccc(NC(=O)[C@H](Cc3ccccc3Cl)NC(=O)c3ccc(F)cc3)cc2)NC(=O)CC2(CCCC2)CC(=O)NCCCCCN1 [Compound 227],> 7.00
3,O=C1CNC(=O)[C@@H](Cc2ccc(NC(=O)[C@H](Cc3ccc(O)cc3)NC(=O)Cc3ccccc3)cc2)NC(=O)CC2(CCCC2)CC(=O)NCCCCCN1 [Compound 183],6.00 to 7.00
4,CC1(C)CC(=O)NCCCCCNC(=O)CNC(=O)[C@@H](Cc2ccc(NC(=O)[C@H](Cc3ccccc3Cl)NC(=O)Cc3ccccc3)cc2)NC(=O)C1 [Compound 222],> 7.00
5,CN1CC(=O)NCCCCCNC(=O)CC2(CCCC2)CC(=O)N[C@H](Cc2ccc(NC(=O)[C@H](Cc3ccccc3Cl)NC(=O)Cc3ccc(O)cc3)cc2)C1=O [Compound 193],> 7.00
6,O=C1CCCNC(=O)[C@@H](Cc2ccc(NC(=O)[C@H](Cc3ccccc3Cl)NC(=O)Cc3ccccc3)cc2)NC(=O)CC2(CCCC2)CC(=O)NCCCN1 [Compound 158],> 7.00
7,O=C1CNC(=O)[C@@H](Cc2ccc(NC(=O)[C@H](Cc3ccccc3Cl)NC(=O)Cc3ccncc3)cc2)NC(=O)CC2(CCCC2)CC(=O)NCCCCCN1 [Compound 202],> 7.00
8,O=C1CNC(=O)[C@@H](Cc2ccc(NC(=O)[C@H](Cc3ccccc3Cl)NC(=O)c3ccccc3Cl)cc2)NC(=O)CC2(CCCC2)CC(=O)NCCCCCN1 [Compound 204],> 7.00
9,O=C1CNC(=O)[C@@H](Cc2ccc(NC(=O)[C@H](Cc3ccccc3Cl)NC(=O)Cc3ccccc3)cc2)NC(=O)CC2(CCCCC2)CC(=O)NCCCCCN1 [Compound 223],> 7.00
10,O=C1CNC(=O)[C@@H](Cc2ccc(NC(=O)[C@H](Cc3ccc(Cl)c(Cl)c3)NC(=O)Cc3ccccc3)cc2)NC(=O)CC2(CCCC2)CC(=O)OCCCCCN1 [Compound 224],6.00 to 7.00
11,O=C1CNC(=O)[C@@H](Cc2ccc(NC(=O)[C@H](Cc3csc4ccccc34)NC(=O)Cc3ccccc3)cc2)NC(=O)CC2(CCCC2)CC(=O)NCCCCCN1 [Compound 233],> 7.00

# Target: T3, biotinylated human IL-17 (binding to IL17R/Fc) (Homo sapiens, UniProt Q16552)
# T3 construct: purchased R&D Systems 317-ILB (IL-17, biotinylated); 177-IR (IL17R/Fc)
# T3 sequence (Q16552 20-155 limits assumed): T1 sequence (Q16552 20-155 limits assumed)
# Test: IL-17 competition ELISA II (captured IL17R/Fc, biotinylated IL-17)
# Settings: not given
# Summary of the method: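 Competition read-out: absorbance at 450 nm after streptavidin-HRP/TMB detection, fitted to a 4-parameter logistic model bounded by no-competitor and blank wells to give IC50. Compound was serially diluted 5-fold from 1 μM alongside 20 nM (stock) biotinylated IL-17 on IL17R/Fc (10 nM) captured via goat anti-human IgG, 30 min at room temperature.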
row,SMILES,pIC50
1,COC(=O)N[C@@H](Cc1ccccc1Cl)C(=O)Nc1ccc(C[C@H]2NC(=O)CC3(CCCC3)CC(=O)NCCOCCOCCNC2=O)cc1 [Compound 465],> 7.00

# Test system: IL-17A induced secretion of IL-6 in primary human RASF cells
# Test: Inhibition of IL17A induced secretion of IL6 in human rheumatoid arthritis synovial fibroblast (RASF) cells
# Type: cell-based
# Settings: Homo sapiens, Fibroblast
# Summary of the method: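 Primary RASF cells (passage 2-8) stimulated 20 h at 37 °C with rhIL-17A (30 ng/mL) pre-incubated 1 h with compound (final 0.03-25 μM, 0.25% DMSO). Supernatant IL-6 measured by ELISA, normalized to WST1 viability; triplicates.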
row,SMILES,pIC50
1,O=C1CNC(=O)[C@@H](Cc2ccc(NC(=O)[C@H](Cc3ccccc3Cl)NC(=O)Cc3ccccc3)cc2)NC(=O)CC2(CCCC2)CC(=O)N(CCO)CCCCCN1 [Compound 168],5.00 to 6.00
2,O=C1CNC(=O)[C@@H](Cc2ccc(NC(=O)[C@H](Cc3ccccc3Cl)NC(=O)c3ccc(F)cc3)cc2)NC(=O)CC2(CCCC2)CC(=O)NCCCCCN1 [Compound 227],5.00 to 6.00
